Source: patent publication US10294202B2, “Pyrrolidinones as herbicides” (FMC Corporation, priority 2013, dated 2019)

Experiments:
Assay in all cases: Test D pre-/postemergence herbicide test
bromegrass, downy = type: in vivo, Bromus tectorum; conditions: for Plant response rating: Bromegrass, Downy, scale 0 to 100; for Plant response rating, Bromegrass, Downy: scale 0 to 100 (0 no effect, 100 complete control)
Excerpt: (§1) Seeds of plant species selected from bluegrass (annual bluegrass, Poa annua), blackgrass (Alopecurus myosuroides), canarygrass (littleseed canarygrass, Phalaris minor), chickweed (common chickweed, Stellaria media), galium (catchweed bedstraw, Galium aparine), bromegrass, downy (downy bromegrass, Bromus tectorum), field poppy (Papaver rhoeas), field violet (Viola arvensis), foxtail, green (green foxtail, Setaria viridis), deadnettle (henbit deadnettle, Lamium amplexicaule), ryegrass, Italian (Italian ryegrass, Lolium multiflorum), kochia (Kochia scoparia), lambsquarters (Chenopodium album), oilseed rape (Brassica napus), pigweed (Amaranthus retroflexus), chamomile (scentless chamomile, Matricaria inodora), Russian thistle (Salsola kali), speedwell (bird's-eye speedwell, Veronica persica), barley, spring (spring barley, Hordeum vulgare), wheat, spring (spring wheat, Triticum aestivum), buckwheat, wild (wild buckwheat, Polygonum convolvulus), mustard, wild (wild mustard, Sinapis arvensis), oat, wild (wild oat, Avena fatua), radish, wild (wild radish, Raphanus raphanistrum), […]), barley, winter (winter barley, Hordeum vulgare), and wheat, winter (winter wheat, Triticum aestivum) were planted into a silt loam soil and treated preemergence with test chemicals formulated in a non-phytotoxic solvent mixture which included a surfactant. At the same time, these species were planted in pots containing Redi-Earth® planting medium (Scotts Company, 14111 Scottslawn Road, Marysville, Ohio 43041) comprising spaghnum peat moss, vermiculite, wetting agent and starter nutrients and treated with postemergence applications of the test chemicals formulated in the same manner. Plants ranged in height from 2 to 18 cm (1- to 4-leaf stage). Treated plants and controls were maintained in a controlled growth environment for 7 to 21 days after which time all species were compared to controls and visually evaluated. Plant response ratings, summarized in Table D, are based on a scale of 0 to 100 where 0 is no effect and 100 is complete control. A dash (-) response means no test result.

chickweed = type: in vivo, Stellaria media; conditions: for Plant response rating: Chickweed, scale 0 to 100; for Plant response rating, Chickweed: scale 0 to 100 (0 no effect, 100 complete control)
Excerpt: as §1

foxtail, green = type: in vivo, Setaria viridis; conditions: for Plant response rating: Foxtail, Green, scale 0 to 100; for Plant response rating, Foxtail, Green: scale 0 to 100 (0 no effect, 100 complete control)
Excerpt: as §1

pigweed = type: in vivo, Amaranthus retroflexus; conditions: for Plant response rating: Postemergence, Pigweed, scale 0 to 100; for Plant response rating, Pigweed: Preemergence, scale 0 to 100 (0 no effect, 100 complete control)
Excerpt: as §1

ryegrass, Italian = type: in vivo, Lolium multiflorum; conditions: for Plant response rating: Postemergence, Ryegrass, Italian, scale 0 to 100; for Plant response rating, Ryegrass, Italian: Preemergence, scale 0 to 100 (0 no effect, 100 complete control)
Excerpt: as §1

**Q.** `O=C1NCC(c2ccc(Cl)c(F)c2)C1C(=O)Nc1cccc(F)c1F` (stereo not drawn) [Compound 52] was tested. Which Plant response rating (bromegrass, downy; Postemergence, 16 g ai/ha) did it give?
**A.** 0

**Q.** And the Plant response rating (bromegrass, downy; Postemergence, 31 g ai/ha)?
**A.** 0

**Q.** And the Plant response rating (bromegrass, downy; Postemergence, 62 g ai/ha)?
**A.** 0

**Q.** And the Plant response rating (bromegrass, downy; Postemergence, 125 g ai/ha)?
**A.** 0

**Q.** What about the Plant response rating (bromegrass, downy; Postemergence, 250 g ai/ha) of the same molecule?
**A.** 0

**Q.** And the “Plant response rating, Bromegrass, Downy” value (bromegrass, downy; Preemergence, 62 g ai/ha)?
**A.** 0

**Q.** And the “Plant response rating, Bromegrass, Downy” value (bromegrass, downy; Preemergence, 16 g ai/ha)?
**A.** 0

**Q.** What about the “Plant response rating, Bromegrass, Downy” value (bromegrass, downy; Preemergence, 31 g ai/ha) of the same molecule?
**A.** 0

**Q.** And the Plant response rating (bromegrass, downy; Preemergence, 125 g ai/ha)?
**A.** 0

**Q.** And the Plant response rating (bromegrass, downy; Preemergence, 250 g ai/ha)?
**A.** 0

**Q.** And the Plant response rating (chickweed; Postemergence, 16 g ai/ha)?
**A.** 0

**Q.** And the Plant response rating (chickweed; Postemergence, 31 g ai/ha)?
**A.** 0

**Q.** And the Plant response rating (chickweed; Postemergence, 62 g ai/ha)?
**A.** 10

**Q.** And the Plant response rating (chickweed; Postemergence, 125 g ai/ha)?
**A.** 15

**Q.** What about the Plant response rating (chickweed; Postemergence, 250 g ai/ha) of the same molecule?
**A.** 25

**Q.** What about the Plant response rating (foxtail, green; Postemergence, 16 g ai/ha) of the same molecule?
**A.** 0

**Q.** What about the Plant response rating (foxtail, green; Postemergence, 31 g ai/ha) of the same molecule?
**A.** 0

**Q.** And the Plant response rating (foxtail, green; Postemergence, 62 g ai/ha)?
**A.** 0

**Q.** And the Plant response rating (foxtail, green; Postemergence, 125 g ai/ha)?
**A.** 0

**Q.** And the Plant response rating (foxtail, green; Postemergence, 250 g ai/ha)?
**A.** 0

**Q.** What about the “Plant response rating, Foxtail, Green” value (foxtail, green; Preemergence, 62 g ai/ha) of the same molecule?
**A.** 0

**Q.** What about the “Plant response rating, Foxtail, Green” value (foxtail, green; Preemergence, 16 g ai/ha) of the same molecule?
**A.** 0

**Q.** And the “Plant response rating, Foxtail, Green” value (foxtail, green; Preemergence, 31 g ai/ha)?
**A.** 0

**Q.** And the Plant response rating (foxtail, green; Preemergence, 125 g ai/ha)?
**A.** 0

**Q.** And the Plant response rating (foxtail, green; Preemergence, 250 g ai/ha)?
**A.** 60

**Q.** And the Plant response rating (pigweed; 16 g ai/ha)?
**A.** 0

**Q.** And the Plant response rating (pigweed; 31 g ai/ha)?
**A.** 0

**Q.** And the Plant response rating (pigweed; 62 g ai/ha)?
**A.** 0

**Q.** What about the Plant response rating (pigweed; 125 g ai/ha) of the same molecule?
**A.** 30

**Q.** And the Plant response rating (pigweed; 250 g ai/ha)?
**A.** 40

**Q.** What about the “Plant response rating, Pigweed” value (pigweed; 62 g ai/ha) of the same molecule?
**A.** 10

**Q.** What about the “Plant response rating, Pigweed” value (pigweed; 125 g ai/ha) of the same molecule?
**A.** 10

**Q.** What about the “Plant response rating, Pigweed” value (pigweed; 16 g ai/ha) of the same molecule?
**A.** 0

**Q.** What about the “Plant response rating, Pigweed” value (pigweed; 31 g ai/ha) of the same molecule?
**A.** 10

**Q.** And the “Plant response rating, Pigweed” value (pigweed; 250 g ai/ha)?
**A.** 15

**Q.** What about the Plant response rating (ryegrass, Italian; 16 g ai/ha) of the same molecule?
**A.** 0

**Q.** What about the Plant response rating (ryegrass, Italian; 31 g ai/ha) of the same molecule?
**A.** 0

**Q.** And the Plant response rating (ryegrass, Italian; 62 g ai/ha)?
**A.** 0

**Q.** What about the Plant response rating (ryegrass, Italian; 125 g ai/ha) of the same molecule?
**A.** 0

**Q.** And the Plant response rating (ryegrass, Italian; 250 g ai/ha)?
**A.** 0

**Q.** What about the “Plant response rating, Ryegrass, Italian” value (ryegrass, Italian; 62 g ai/ha) of the same molecule?
**A.** 0

**Q.** What about the “Plant response rating, Ryegrass, Italian” value (ryegrass, Italian; 125 g ai/ha) of the same molecule?
**A.** 0

**Q.** What about the “Plant response rating, Ryegrass, Italian” value (ryegrass, Italian; 16 g ai/ha) of the same molecule?
**A.** 40

**Q.** And the “Plant response rating, Ryegrass, Italian” value (ryegrass, Italian; 31 g ai/ha)?
**A.** 0

**Q.** And the “Plant response rating, Ryegrass, Italian” value (ryegrass, Italian; 250 g ai/ha)?
**A.** 0

**Q.** Which results are given for `O=C1NCC(c2ccc(F)c(C(F)(F)F)c2)C1C(=O)Nc1cccc(F)c1F` (racemic) [Compound 77]?
**A.** Plant response rating, Bromegrass, Downy (bromegrass, downy; Preemergence, 62 g ai/ha): 0; Plant response rating, Bromegrass, Downy (bromegrass, downy; Preemergence, 31 g ai/ha): 0; Plant response rating (bromegrass, downy; Preemergence, 125 g ai/ha): 10; Plant response rating (bromegrass, downy; Preemergence, 250 g ai/ha): 25; Plant response rating, Chickweed (chickweed; Preemergence, 62 g ai/ha): 90; Plant response rating, Chickweed (chickweed; Preemergence, 31 g ai/ha): 75; Plant response rating (chickweed; Preemergence, 125 g ai/ha): 100; Plant response rating (chickweed; Preemergence, 250 g ai/ha): 100; Plant response rating, Foxtail, Green (foxtail, green; Preemergence, 62 g ai/ha): 80; Plant response rating, Foxtail, Green (foxtail, green; Preemergence, 31 g ai/ha): 15; Plant response rating (foxtail, green; Preemergence, 125 g ai/ha): 70; Plant response rating (foxtail, green; Preemergence, 250 g ai/ha): 85; Plant response rating, Pigweed (pigweed; 62 g ai/ha): 70; Plant response rating, Pigweed (pigweed; 125 g ai/ha): 80; Plant response rating, Pigweed (pigweed; 31 g ai/ha): 25; Plant response rating, Pigweed (pigweed; 250 g ai/ha): 80; Plant response rating, Ryegrass, Italian (ryegrass, Italian; 62 g ai/ha): 15; Plant response rating, Ryegrass, Italian (ryegrass, Italian; 125 g ai/ha): 25; Plant response rating, Ryegrass, Italian (ryegrass, Italian; 31 g ai/ha): 15; Plant response rating, Ryegrass, Italian (ryegrass, Italian; 250 g ai/ha): 35

**Q.** What does the source list for `O=C1NCC(c2cc(F)c(F)cc2F)C1C(=O)Nc1cccc(F)c1F` (stereo not drawn) [Compound 50]?
**A.** Plant response rating (bromegrass, downy; Postemergence, 16 g ai/ha): 0; Plant response rating (bromegrass, downy; Postemergence, 31 g ai/ha): 0; Plant response rating (bromegrass, downy; Postemergence, 62 g ai/ha): 0; Plant response rating (bromegrass, downy; Postemergence, 125 g ai/ha): 0; Plant response rating, Bromegrass, Downy (bromegrass, downy; Preemergence, 62 g ai/ha): 0; Plant response rating, Bromegrass, Downy (bromegrass, downy; Preemergence, 16 g ai/ha): 0; Plant response rating, Bromegrass, Downy (bromegrass, downy; Preemergence, 31 g ai/ha): 0; Plant response rating (bromegrass, downy; Preemergence, 125 g ai/ha): 0; Plant response rating (chickweed; Postemergence, 16 g ai/ha): 10; Plant response rating (chickweed; Postemergence, 31 g ai/ha): 15; Plant response rating (chickweed; Postemergence, 62 g ai/ha): 20; Plant response rating (chickweed; Postemergence, 125 g ai/ha): 15; Plant response rating, Chickweed (chickweed; Preemergence, 62 g ai/ha): 0; Plant response rating, Chickweed (chickweed; Preemergence, 16 g ai/ha): 0; Plant response rating, Chickweed (chickweed; Preemergence, 31 g ai/ha): 0; Plant response rating (chickweed; Preemergence, 125 g ai/ha): 0; Plant response rating (foxtail, green; Postemergence, 16 g ai/ha): 0; Plant response rating (foxtail, green; Postemergence, 31 g ai/ha): 0; Plant response rating (foxtail, green; Postemergence, 62 g ai/ha): 0; Plant response rating (foxtail, green; Postemergence, 125 g ai/ha): 0; Plant response rating, Foxtail, Green (foxtail, green; Preemergence, 62 g ai/ha): 50; Plant response rating, Foxtail, Green (foxtail, green; Preemergence, 16 g ai/ha): 0; Plant response rating, Foxtail, Green (foxtail, green; Preemergence, 31 g ai/ha): 0; Plant response rating (foxtail, green; Preemergence, 125 g ai/ha): 40; Plant response rating (pigweed; 16 g ai/ha): 5; Plant response rating (pigweed; 31 g ai/ha): 0; Plant response rating (pigweed; 62 g ai/ha): 0; Plant response rating (pigweed; 125 g ai/ha): 10; Plant response rating, Pigweed (pigweed; 62 g ai/ha): 25; Plant response rating, Pigweed (pigweed; 125 g ai/ha): 5; Plant response rating, Pigweed (pigweed; 16 g ai/ha): 10; Plant response rating, Pigweed (pigweed; 31 g ai/ha): 10; Plant response rating (ryegrass, Italian; 16 g ai/ha): 0; Plant response rating (ryegrass, Italian; 31 g ai/ha): 0; Plant response rating (ryegrass, Italian; 62 g ai/ha): 0; Plant response rating (ryegrass, Italian; 125 g ai/ha): 0; Plant response rating, Ryegrass, Italian (ryegrass, Italian; 62 g ai/ha): 0; Plant response rating, Ryegrass, Italian (ryegrass, Italian; 125 g ai/ha): 0; Plant response rating, Ryegrass, Italian (ryegrass, Italian; 16 g ai/ha): 0; Plant response rating, Ryegrass, Italian (ryegrass, Italian; 31 g ai/ha): 0
